We go through 5 compounds from ChEMBL document CHEMBL1154471, “Lanostane-type triterpenoids from the sclerotia of Inonotus obliquus possessing anti-tumor promoting activity” (Eur J Med Chem, 2008).

Data set [1] deals with Raji. The data set can be described thus: Inhibition of TPA-induced EBV-early antigen activation in human Raji cells assessed as EA activation at 10 molar ratio […] relative to TPA. Also noted: scale not given: the % may be the effect or the level left. In kind it is cell-based. The following applies: human gammaherpesvirus 4.
In data set [2] the test system is Raji. Nature of the data set: Inhibition of TPA-induced EBV-early antigen activation in human Raji cells assessed as EA activation at 100 molar ratio […] relative to TPA. In kind it is cell-based. The arrangement: scale not given: the % may be the effect or the level left. The following applies: human gammaherpesvirus 4.
For data set [3], the system named is Raji. Nature of the data set: Inhibition of TPA-induced EBV-early antigen activation in human Raji cells assessed as EA activation at 1000 molar ratio after 48 hrs relative to TPA. Also noted: scale not given: the % may be the effect or the level left. In kind it is cell-based. The following applies: human gammaherpesvirus 4.
Data set [4] can be described thus: Inhibition of TPA-induced EBV-early antigen activation in human Raji cells assessed as EA activation. In kind it is cell-based, human gammaherpesvirus 4.
For data set [5], the system named is Raji. The data set can be described thus: Inhibition of TPA-induced EBV-early antigen activation in human Raji cells assessed as EA activation at 500 molar ratio after 48 hrs relative to TPA. The conditions noted are these: human gammaherpesvirus 4. In kind it is cell-based. Also noted: scale not given: the % may be the effect or the level left.
Data set [6] deals with Mus musculus. The data set can be described thus: Inhibition of DMBA-induced/TPA-promoted carcinogenesis in mouse assessed as number of skin papillomas per mouse at 85 nmol administered twice weekly after 1 week of initiation for 20 weeks. The data set is classed as functional.
In data set [7] the test system is Mus musculus. The data set can be described thus: Inhibition of DMBA-induced/TPA-promoted carcinogenesis in mouse assessed as number of skin papillomas per mouse at 85 nmol administered twice weekly after 1 week of initiation for 11 weeks. The data set is classed as functional.
Data set [8] concerns Mus musculus. The data set can be described thus: Inhibition of DMBA-induced/TPA-promoted carcinogenesis in mouse assessed as number of mouse bearing papillomas at 85 nmol administered twice weekly after 1 week of initiation for 20 weeks. In kind it is functional. Also noted: scale not given: the % may be the effect or the level left.
Data set [9] can be described thus: Cytotoxicity against human Raji cells assessed as cell viability at 1000 molar ratio by trypan blue staining relative to control. The data set is classed as cell-based. The conditions noted are these: read-out: Activity.
In data set [10] the test system is Mus musculus. The data set can be described thus: Inhibition of DMBA-induced/TPA-promoted carcinogenesis in mouse assessed as number of mouse bearing papillomas at 85 nmol administered twice weekly after 1 week of initiation for 11 weeks. The arrangement: scale not given: the % may be the effect or the level left. In kind it is functional.

Regarding `CC1(C)CC[C@]2(C(=O)O)CC[C@]3(C)C(=CC[C@@H]4[C@@]5(C)CC[C@H](O)C(C)(C)[C@@H]5CC[C@]43C)[C@@H]2C1` [OLEANOLIC_ACID], the Activity with Raji [1] came out at 100%; in the data set with Raji [2], 80%; with Raji [3] it was 12.7%; with Raji [5] it was 30%. Further, the IC50 in data set [4] is 389 molar ratio.

As for `CC(C)=CCC[C@@H](C=O)[C@H]1CC[C@@]2(C)C3=C(CC[C@]12C)[C@@]1(C)CC[C@H](O)C(C)(C)[C@@H]1CC3`, the Activity in the data set on Mus musculus [6] is 3.8; in the data set on Raji [1], 90.4%; in the data set with Mus musculus [7], 1.2; with Raji [2], 64%; in the data set on Mus musculus [8], 73.3%; with Raji [3], 0%. In addition, the Activity was found to be 33.3% in the data set with Mus musculus [10] and 35.1% in the data set on Raji [5]. Besides, in data set [9], the viability at 1000 molar ratio came out at 70%. For the same compound, the IC50 in [4] was 232 molar ratio.

As for `C[C@H]([C@H](O)/C=C/C(C)(C)O)[C@H]1CC[C@@]2(C)C3=C(CC[C@]12C)[C@@]1(C)CC[C@H](O)C(C)(C)[C@@H]1CC3`, the Activity was 89.2% with Raji [1], 69.8% with Raji [2], 0% with Raji [3] and 26.9% in the data set on Raji [5]. Besides, the viability at 1000 molar ratio in [9] was 70%. The IC50 in data set [4] was determined as 231 molar ratio.

As to `C[C@H]([C@H](O)/C=C/C(C)(C)O)[C@H]1CC[C@@]2(C)C3=CC[C@H]4C(C)(C)[C@@H](O)CC[C@]4(C)C3=CC[C@]12C`, the Activity with Raji [1] was 88.2%; with Raji [2] it was 67.3%; with Raji [3], 0%; with Raji [5], 25.1%. Further, the viability at 1000 molar ratio in data set [9] turned out to be 70%. Besides, in [4], the IC50 is 228 molar ratio.

Take `CC(C)=CCC[C@@H](CO)[C@H]1CC[C@@]2(C)C3=C(CC[C@]12C)[C@@]1(C)CC[C@H](O)C(C)(C)[C@@H]1CC3`: the Activity with Raji [1] was 100%; in the data set on Raji [2], 77.5%; in the data set on Raji [3], 10.9%; in the data set with Raji [5], 47.1%. Further, in data set [9], the viability at 1000 molar ratio is 70%. Moreover, the IC50 in [4] worked out at 392 molar ratio.
